Results taken from patent US20260092057A1, “BCL-XL/BCL-2 DEGRADERS AND USES THEREOF” (Kymera Therapeutics, Inc., priority 2022, published 2026).
Read-outs that look alike come from different tables or passages of the source. One block for each compound: values may come before it.

What was measured:
[1] = test system: Caki-2 cells; test: CTG (CellTiter-Glo) cell viability assay, Caki-2; assay type: cell-based; settings: Homo sapiens, CAKI-2, 72 h, Caki-2, 3-day; read-out: CTG Chempartner/PHA- Caki-2 3-day: Average external-IC50
Procedure: (§1) Compound-mediated viability effect on MOLT-4 and Caki-2 was quantitatively determined using the CellTiter-Glo® Luminescent Cell Viability Assay kit from Promega (Catalog number G7570) following manufacturer's recommended procedures. Briefly, MOLT-4 and Caki-2 cells were seeded into 384 well plates (Grenier Bio-One, Catalog number 781080) with a density of 10,000 cells per well. Compounds were then added to the assay plate with final top concentration of 10 µM and 1:3 dilution series with total of 9 doses. The final DMSO concentration is normalized to 0.2%. The assay plates were incubated at 37° C. for 3 days under 5% CO2. Then the assay plate was equilibrated at room temperature for 10 minutes. To determine cell viability, 30 uL CellTiter Glo reagent was added to each well and the assay plate was centrifuged at 1000 rpm for 30 second, incubated at room temperature for 10 min, and analyzed by detecting the luminescence using a multimode plate reader (EnVision 2105, PerkinElmer). The data was then analyzed by software Prism 7.0 from GraphPad and the dose response curves are fit using a three-parameter logistic equation to calculate IC50.
(§2) The letter codes for MOLT-4 IC50 include: A (<0.1 μM); B (0.1-1.0 μM); C (>1.0-3.0 μM); and D (>3.0 μM). The letter codes for Caki-2 IC50 include: A (<5 μM); B (5-10 μM); C (>10-30.0 μM); and D (>30.0 μM).

[2] = test system: MOLT-4 cells; test: CTG (CellTiter-Glo) cell viability assay, MOLT-4; assay type: cell-based; settings: MOLT-4, 3 day, read-out: CTG Cell Viability Assay - MOLT-4 3 day: Average external-IC50
Procedure: as §1, §2

Compound: Cc1ncsc1-c1ccc([C@H](C)NC(=O)[C@@H]2C[C@@H](O)CN2C(=O)[C@@H](NC(=O)CCCCCN2CCC(CNc3ccc(S(=O)(=O)NC(=O)c4ccc(N5CCN(CC6=C(c7ccc(Cl)cc7)CC(C)(C)CC6)CC5)cc4Oc4cnc5[nH]ccc5c4)cc3S(=O)(=O)C(F)(F)F)CC2)C(C)(C)C)cc1 [I-75]
IC50 [1]: > 30 µM
IC50 ([2]; Homo sapiens, MOLT-4, 72 h): 0.1 to 1 µM

Compound: Cc1ncsc1-c1ccc([C@H](C)NC(=O)[C@@H]2C[C@@H](O)CN2C(=O)[C@@H](NC(=O)CCCCCC(=O)NCC[C@H](CSc2ccccc2)Nc2ccc(S(=O)(=O)NC(=O)c3ccc(N4CCC([C@@H](O)c5ccccc5-c5ccc(Cl)cc5)CC4)cc3)cc2S(=O)(=O)C(F)(F)F)C(C)(C)C)cc1 [I-82]
IC50 [1]: 10 to 30 µM
IC50 ([2]; Homo sapiens, MOLT-4, 72 h): 1 to 3 µM

Compound: Cc1ncsc1-c1ccc([C@H](C)NC(=O)[C@@H]2C[C@@H](O)CN2C(=O)[C@@H](NC(=O)CCCCCC(=O)NCCCNc2ccc(S(=O)(=O)NC(=O)c3ccc(N4CCN(CC5=C(c6ccc(Cl)cc6)CC(C)(C)CC5)CC4)cc3Oc3cnc4[nH]ccc4c3)cc2S(=O)(=O)C(F)(F)F)C(C)(C)C)cc1 [I-76]
IC50 [1]: > 30 µM
IC50 ([2]; Homo sapiens, MOLT-4, 72 h): > 3 µM

Compound: Cc1ncsc1-c1ccc([C@H](C)NC(=O)[C@@H]2C[C@@H](O)CN2C(=O)[C@@H](NC(=O)CCCCCC(=O)N2CCN(CC[C@H](CSc3ccccc3)Nc3ccc(S(=O)(=O)NC(=O)c4ccc(N5CCC(N(C)C)CC5)cc4)cc3S(=O)(=O)C(F)(F)F)CC2)C(C)(C)C)cc1 [I-48]
IC50 [1]: > 30 µM
IC50 ([2]; Homo sapiens, MOLT-4, 72 h): > 3 µM

Compound: Cc1ncsc1-c1ccc([C@H](C)NC(=O)[C@@H]2C[C@@H](O)CN2C(=O)[C@@H](NC(=O)CCCCCC(=O)N(C)CCCNc2ccc(S(=O)(=O)NC(=O)c3ccc(N4CCC([C@@H](O)c5ccccc5-c5ccc(Cl)cc5)CC4)cc3Oc3cnc4[nH]ccc4c3)cc2S(=O)(=O)C(F)(F)F)C(C)(C)C)cc1 [I-68]
IC50 [1]: > 30 µM
IC50 ([2]; Homo sapiens, MOLT-4, 72 h): > 3 µM

Compound: Cc1ncsc1-c1ccc([C@H](C)NC(=O)[C@@H]2C[C@@H](O)CN2C(=O)[C@@H](NC(=O)CCCCCC(=O)N2CCN(CC[C@H](CSc3ccccc3)Nc3ccc(S(=O)(=O)NC(=O)c4ccc(NC5CC(C)C5)cc4)cc3S(=O)(=O)C(F)(F)F)CC2)C(C)(C)C)cc1 (stereo partly drawn) [I-44]
IC50 [1]: > 30 µM
IC50 ([2]; Homo sapiens, MOLT-4, 72 h): > 3 µM

Compound: Cc1ncsc1-c1ccc([C@H](C)NC(=O)[C@@H]2C[C@@H](O)CN2C(=O)[C@@H](NC(=O)CCCCCC(=O)N2CCN(CCCNc3ccc(S(=O)(=O)NC(=O)c4ccc(N5CCC(C)(C)CC5)cc4Oc4cnc5[nH]ccc5c4)cc3S(=O)(=O)C(F)(F)F)CC2)C(C)(C)C)cc1 [I-54]
IC50 [1]: > 30 µM
IC50 ([2]; Homo sapiens, MOLT-4, 72 h): > 3 µM

Compound: Cc1ncsc1-c1ccc([C@H](C)NC(=O)[C@@H]2C[C@@H](O)CN2C(=O)[C@@H](NC(=O)CCCCCC(=O)N(C)CC[C@H](CSc2ccccc2)Nc2ccc(S(=O)(=O)NC(=O)c3ccc(N4CCC(C(O)c5ccccc5-c5ccc(Cl)cc5)CC4)cc3)cc2S(=O)(=O)C(F)(F)F)C(C)(C)C)cc1 (stereo partly drawn) [I-71]
IC50 [1]: 10 to 30 µM
IC50 ([2]; Homo sapiens, MOLT-4, 72 h): 1 to 3 µM

Compound: Cc1ncsc1-c1ccc([C@H](C)NC(=O)[C@@H]2C[C@@H](O)CN2C(=O)[C@@H](NC(=O)CCCCC(=O)N2C[C@H]3C[C@@H]2CN3Cc2ccc(-c3ccc(Cl)cc3)c(CN3CCN(c4ccc(C(=O)NS(=O)(=O)c5ccc(N[C@H](CCN(C)C)CSc6ccccc6)c([N+](=O)[O-])c5)cc4)CC3)c2)C(C)(C)C)cc1 [I-16]
IC50 [1]: > 30 µM
IC50 ([2]; Homo sapiens, MOLT-4, 72 h): > 3 µM

Compound: Cc1ncsc1-c1ccc([C@H](C)NC(=O)[C@@H]2C[C@@H](O)CN2C(=O)[C@@H](NC(=O)C2CCN(c3ccc(S(=O)(=O)NC(=O)c4ccc(-c5ccc(Cl)cc5)c(CN5CCN(c6ccc(C(=O)NS(=O)(=O)c7ccc(N[C@H](CCN(C)C)CSc8ccccc8)c([N+](=O)[O-])c7)cc6)CC5)c4)cc3)CC2)C(C)(C)C)cc1 [I-15]
IC50 [1]: > 30 µM
IC50 ([2]; Homo sapiens, MOLT-4, 72 h): > 3 µM

Compound: Cc1ncsc1-c1ccc([C@H](C)NC(=O)[C@@H]2C[C@@H](O)CN2C(=O)[C@@H](NC(=O)CCCC(=O)N2CCN(CCCNc3ccc(S(=O)(=O)NC(=O)c4ccc(N5CCC([C@@H](O)c6ccccc6-c6ccc(Cl)cc6)CC5)cc4Oc4cnc5[nH]ccc5c4)cc3S(=O)(=O)C(F)(F)F)CC2)C(C)(C)C)cc1 (single isomer, unassigned) [I-59]
IC50 [1]: > 30 µM
IC50 ([2]; Homo sapiens, MOLT-4, 72 h): > 3 µM

Compound: Cc1ncsc1-c1ccc([C@H](C)NC(=O)[C@@H]2C[C@@H](O)CN2C(=O)[C@@H](NC(=O)CCCCC(=O)N2CCC3(CCN(Cc4ccc(-c5ccc(Cl)cc5)c(CN5CCN(c6ccc(C(=O)NS(=O)(=O)c7ccc(N[C@H](CCN(C)C)CSc8ccccc8)c([N+](=O)[O-])c7)cc6)CC5)c4)CC3)CC2)C(C)(C)C)cc1 [I-17]
IC50 [1]: > 30 µM
IC50 ([2]; Homo sapiens, MOLT-4, 72 h): > 3 µM

Compound: Cc1ncsc1-c1ccc([C@H](C)NC(=O)[C@@H]2C[C@@H](O)CN2C(=O)[C@@H](NC(=O)CCCCCNc2ccc(S(=O)(=O)NC(=O)c3ccc(N4CCN(CC5=C(c6ccc(Cl)cc6)CC(C)(C)CC5)CC4)cc3Oc3cnc4[nH]ccc4c3)cc2S(=O)(=O)C(F)(F)F)C(C)(C)C)cc1 [I-80]
IC50 [1]: > 30 µM
IC50 ([2]; Homo sapiens, MOLT-4, 72 h): > 3 µM

Compound: Cc1ncsc1-c1ccc([C@H](C)NC(=O)[C@@H]2C[C@@H](O)CN2C(=O)[C@@H](NC(=O)CCCCCC(=O)N2CCN(CC[C@H](CSc3ccccc3)Nc3ccc(S(=O)(=O)NC(=O)c4ccc(N5CCN(C)CC5)cc4)cc3S(=O)(=O)C(F)(F)F)CC2)C(C)(C)C)cc1 [I-53]
IC50 [1]: > 30 µM
IC50 ([2]; Homo sapiens, MOLT-4, 72 h): > 3 µM

Compound: Cc1ncsc1-c1ccc([C@H](C)NC(=O)[C@@H]2C[C@@H](O)CN2C(=O)[C@@H](NC(=O)CCCCCC(=O)N2CCC(NCCCNc3ccc(S(=O)(=O)NC(=O)c4ccc(N5CCN(CC6=C(c7ccc(Cl)cc7)CC(C)(C)CC6)CC5)cc4Oc4cnc5[nH]ccc5c4)cc3S(=O)(=O)C(F)(F)F)CC2)C(C)(C)C)cc1 [I-87]
IC50 [1]: > 30 µM
IC50 ([2]; Homo sapiens, MOLT-4, 72 h): > 3 µM

The next lines start with results.

IC50 [2]: 1 to 3 µM
Compound: Cc1ncsc1-c1ccc([C@H](C)NC(=O)[C@@H]2C[C@@H](O)CN2C(=O)[C@@H](NC(=O)CCCCCC(=O)N2CCN(C[C@]3(C)CCC(c4ccc(Cl)cc4)=C(CN4CCN(c5ccc(C(=O)NS(=O)(=O)c6ccc(NCCCN7CCOCC7)c(S(=O)(=O)C(F)(F)F)c6)c(Oc6cnc7[nH]ccc7c6)c5)CC4)C3)CC2)C(C)(C)C)cc1 [I-130]
IC50 [1]: > 30 µM

IC50 ([2]; Homo sapiens, MOLT-4, 72 h): > 3 µM
Compound: Cc1ncsc1-c1ccc([C@H](C)NC(=O)[C@@H]2C[C@@H](O)CN2C(=O)[C@@H](NC(=O)CCC2CCN(CCCNc3ccc(S(=O)(=O)NC(=O)c4ccc(N5CCN([C@@H](O)c6ccccc6-c6ccc(Cl)cc6)CC5)cc4Oc4cnc5[nH]ccc5c4)cc3S(=O)(=O)C(F)(F)F)CC2)C(C)(C)C)cc1 [I-128]
IC50 [1]: > 30 µM

IC50 ([2]; Homo sapiens, MOLT-4, 72 h): 0.1 to 1 µM
Compound: C#Cc1ccc([C@H](C)NC(=O)[C@@H]2C[C@@H](O)CN2C(=O)[C@@H](NC(=O)CCCCCC(=O)N2CCN(CCCNc3ccc(S(=O)(=O)NC(=O)c4ccc(N5CCN(CC6=C(c7ccc(Cl)cc7)CC(C)(C)CC6)CC5)cc4Oc4cnc5[nH]ccc5c4)cc3S(=O)(=O)C(F)(F)F)CC2)C(C)(C)C)c(OC)c1 [I-103]
IC50 [1]: > 30 µM

IC50 ([2]; Homo sapiens, MOLT-4, 72 h): 1 to 3 µM
Compound: Cc1ncsc1-c1ccc([C@H](C)NC(=O)[C@@H]2C[C@@H](O)CN2C(=O)[C@@H](NC(=O)CCCCCCC(=O)N2CCN(C[C@]3(C)CCC(c4ccc(Cl)cc4)=C(CN4CCN(c5ccc(C(=O)NS(=O)(=O)c6ccc(NCCN7CCOCC7)c(S(=O)(=O)C(F)(F)F)c6)c(Oc6cnc7[nH]ccc7c6)c5)CC4)C3)CC2)C(C)(C)C)cc1 [I-93]
IC50 [1]: > 30 µM

IC50 ([2]; Homo sapiens, MOLT-4, 72 h): 0.1 to 1 µM
Compound: COc1ccc(Oc2cc(N3CCN(CC4=C(c5ccc(Cl)cc5)CC(C)(C)CC4)CC3)ccc2C(=O)NS(=O)(=O)c2ccc(NCCCN3CCN(C(=O)CCCCCC(=O)N[C@H](C(=O)C4C[C@H](O)C[C@H]4C(=O)C[C@@H](C)c4ccc(-c5scnc5C)cc4)C(C)(C)C)CC3)c(S(=O)(=O)C(F)(F)F)c2)cc1 (stereo partly drawn) [I-136]
IC50 [1]: > 30 µM

IC50 ([2]; Homo sapiens, MOLT-4, 72 h): < 0.1 µM
Compound: C#Cc1ccc(C(CO)NC(=O)[C@@H]2C[C@@H](O)CN2C(=O)[C@@H](NC(=O)CCCCCCC(=O)N2CCN(C[C@]3(C)CCC(c4ccc(Cl)cc4)=C(CN4CCN(c5ccc(C(=O)NS(=O)(=O)c6ccc(NCCCN7CCOCC7)c(S(=O)(=O)C(F)(F)F)c6)c(Oc6cnc7[nH]ccc7c6)c5)CC4)C3)CC2)C(C)(C)C)cc1 (stereo partly drawn) [I-139]
IC50 [1]: > 30 µM

IC50 ([2]; Homo sapiens, MOLT-4, 72 h): > 3 µM
Compound: Cc1ncsc1-c1ccc([C@H](C)NC(=O)[C@@H]2C[C@@H](O)CN2C(=O)[C@@H](NC(=O)C2CCC3(CC2)CCN(CCCNc2ccc(S(=O)(=O)NC(=O)c4ccc(N5CCN(CC6=C(c7ccc(Cl)cc7)CC(C)(C)CC6)CC5)cc4Oc4cnc5[nH]ccc5c4)cc2S(=O)(=O)C(F)(F)F)CC3)C(C)(C)C)cc1 [I-116]
IC50 [1]: > 30 µM

IC50 ([2]; Homo sapiens, MOLT-4, 72 h): > 3 µM
Compound: Cc1ncsc1-c1ccc([C@H](C)NC(=O)[C@@H]2C[C@@H](O)CN2C(=O)[C@@H](NC(=O)CCC(=O)N2CCN(CC[C@H](CSc3ccccc3)Nc3ccc(S(=O)(=O)NC(=O)c4ccc(N5CCC([C@@H](O)c6ccccc6-c6ccc(Cl)cc6)CC5)cc4)cc3S(=O)(=O)C(F)(F)F)CC2)C(C)(C)C)cc1 [I-119]
IC50 [1]: > 30 µM

IC50 ([2]; Homo sapiens, MOLT-4, 72 h): > 3 µM
Compound: Cc1ncsc1-c1ccc([C@H](C)NC(=O)[C@@H]2C[C@@H](O)CN2C(=O)[C@@H](NC(=O)C#CC2CCN(CCCNc3ccc(S(=O)(=O)NC(=O)c4ccc(N5CCC([C@@H](O)c6ccccc6-c6ccc(Cl)cc6)CC5)cc4Oc4cnc5[nH]ccc5c4)cc3S(=O)(=O)C(F)(F)F)CC2)C(C)(C)C)cc1 [I-117]
IC50 [1]: > 30 µM
